Format in all cases: biochemical
One assay deals with T1, MMP-2 (Homo sapiens, UniProt P08253).
T1 sequence (P08253 110-660): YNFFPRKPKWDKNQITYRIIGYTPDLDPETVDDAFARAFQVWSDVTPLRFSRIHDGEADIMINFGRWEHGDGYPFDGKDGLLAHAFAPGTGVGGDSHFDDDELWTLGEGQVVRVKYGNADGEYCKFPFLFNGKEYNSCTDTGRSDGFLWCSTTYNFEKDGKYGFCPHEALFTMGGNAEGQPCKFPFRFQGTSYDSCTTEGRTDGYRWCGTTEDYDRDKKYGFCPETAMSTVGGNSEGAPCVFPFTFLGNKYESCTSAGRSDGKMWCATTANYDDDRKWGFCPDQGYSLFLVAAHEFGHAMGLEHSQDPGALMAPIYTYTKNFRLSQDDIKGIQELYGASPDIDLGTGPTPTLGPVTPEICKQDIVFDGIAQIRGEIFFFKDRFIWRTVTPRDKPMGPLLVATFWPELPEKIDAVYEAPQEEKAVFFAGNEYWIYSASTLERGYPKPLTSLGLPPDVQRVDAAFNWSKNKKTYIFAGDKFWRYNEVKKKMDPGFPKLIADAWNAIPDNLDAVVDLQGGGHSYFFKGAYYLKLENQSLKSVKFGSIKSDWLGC
Briefly: MMP-2 FRET peptide inhibition assay. The note with it: Cheng-Prusoff, read-out: Ki app MMP-2. From the text: Substrate and Km values are in micromolar.
2,3-diaminopropionyl diaminopropionic amide; Fam, 5,6-carboxyfluorescein; Mca, 7-
Enzyme Substrate [S] Km Reference

The target in the next assay is T2, ADAMTS-4 (Homo sapiens, UniProt O75173).
T2 construct: made in house
T2 sequence (O75173 213-837): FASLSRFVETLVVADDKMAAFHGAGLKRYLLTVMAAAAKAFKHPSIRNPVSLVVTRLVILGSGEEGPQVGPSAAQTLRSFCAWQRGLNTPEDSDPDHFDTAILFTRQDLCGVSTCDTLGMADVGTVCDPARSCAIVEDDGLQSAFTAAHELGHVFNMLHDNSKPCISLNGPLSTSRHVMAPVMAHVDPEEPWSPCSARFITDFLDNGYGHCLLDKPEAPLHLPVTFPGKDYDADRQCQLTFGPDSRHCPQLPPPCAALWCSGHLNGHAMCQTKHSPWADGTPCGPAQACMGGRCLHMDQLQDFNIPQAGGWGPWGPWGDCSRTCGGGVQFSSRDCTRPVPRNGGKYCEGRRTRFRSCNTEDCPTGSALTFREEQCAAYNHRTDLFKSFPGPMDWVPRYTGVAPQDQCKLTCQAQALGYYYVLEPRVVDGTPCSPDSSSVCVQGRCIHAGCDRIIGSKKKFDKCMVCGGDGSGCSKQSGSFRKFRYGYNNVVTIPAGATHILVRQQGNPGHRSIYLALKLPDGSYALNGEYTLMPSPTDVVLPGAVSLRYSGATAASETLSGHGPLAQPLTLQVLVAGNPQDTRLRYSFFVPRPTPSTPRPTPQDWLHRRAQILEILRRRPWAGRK
The assay is described as follows: Cleavage of ATS7FP7 by ADAMTS-4 (kinetic constants). The note with it: cleavage of ATS7FP7 by ADAMTS-4 (10 nM), 37 °C. As to the method: All enzyme assays were conducted in TNC-B buffer (50 mM Tris- HCl, pH 7.5, 150 mM NaCl, 10 mM CaCl2, and 0.02% NaN3) at 37 °C in 384 well plates (Cat. No: 784900, Greiner Bio-One, Austria). To avoid the formation of inhibitor or peptide aggregates, the detergent Brij-35 (0.05%) was added to TNC-B[13]. For inhibition studies, stock solutions of chemical compounds were prepared in dimethyl sulfoxide (DMSO) (10 mM). These were further diluted at different concentrations in TNC-B and incubated with ADAMTS-1, ADAMTS-4, ADAMTS-5, ADAMTS-7 or ADAMTS-8 (10 nM) for 1 h at 37 °C. Blank samples were prepared using buffer only and the rate of cleavage for blank reactions was subtracted from the rates measured in the presence of enzyme. Upon addition of the indicated ADAMTS-7 FRET substrates (40 µM), the fluorescence was measured immediately using a FLUOstar Omega microplate reader (BMG Labtech, Germany) with an excitation filter wavelength of 485 nm and an emission filter wavelength of 520 nm. […]
Supplementary Figure 6: Cleavage of ATS7FP7 by members of the ADAMTS family. […] Fluorescence was detected (λex = 485 nm, λem = 520 nm) for 8 h at 37°C and reported as relative fluorescence units (RFU). […]

The target of a further assay is T3, ADAMTS-8 (Homo sapiens, UniProt Q9UP79).
T3 construct: made in house; host or cells: HEK293T
T3 sequence (Q9UP79 214-889): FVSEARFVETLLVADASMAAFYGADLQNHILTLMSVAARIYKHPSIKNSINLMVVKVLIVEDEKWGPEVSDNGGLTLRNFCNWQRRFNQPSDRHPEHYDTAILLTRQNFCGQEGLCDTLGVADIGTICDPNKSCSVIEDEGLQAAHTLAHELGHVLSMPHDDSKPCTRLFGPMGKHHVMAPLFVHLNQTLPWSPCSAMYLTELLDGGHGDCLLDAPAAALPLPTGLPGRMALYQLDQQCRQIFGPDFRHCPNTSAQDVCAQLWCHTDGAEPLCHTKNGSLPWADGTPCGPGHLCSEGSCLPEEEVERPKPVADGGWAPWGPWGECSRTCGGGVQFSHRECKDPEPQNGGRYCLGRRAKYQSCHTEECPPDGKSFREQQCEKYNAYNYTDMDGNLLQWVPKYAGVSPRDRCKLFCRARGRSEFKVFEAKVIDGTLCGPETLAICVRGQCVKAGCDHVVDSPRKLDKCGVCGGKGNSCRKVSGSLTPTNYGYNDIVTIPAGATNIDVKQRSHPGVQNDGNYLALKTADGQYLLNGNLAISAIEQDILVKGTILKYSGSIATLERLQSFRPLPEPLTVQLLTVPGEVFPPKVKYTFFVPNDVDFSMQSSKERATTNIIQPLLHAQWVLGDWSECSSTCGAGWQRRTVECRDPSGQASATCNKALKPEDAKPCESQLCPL
Briefly: Cleavage of ATS7FP7 by ADAMTS-8. The note with it: ADAMTS-8 10 nM, ATS7FP7 40 μM. As to the method: All enzyme assays were conducted in TNC-B buffer (50 mM Tris- HCl, pH 7.5, 150 mM NaCl, 10 mM CaCl2, and 0.02% NaN3) at 37 °C in 384 well plates (Cat. No: 784900, Greiner Bio-One, Austria). To avoid the formation of inhibitor or peptide aggregates, the detergent Brij-35 (0.05%) was added to TNC-B[13]. For inhibition studies, stock solutions of chemical compounds were prepared in dimethyl sulfoxide (DMSO) (10 mM). These were further diluted at different concentrations in TNC-B and incubated with ADAMTS-1, ADAMTS-4, ADAMTS-5, ADAMTS-7 or ADAMTS-8 (10 nM) for 1 h at 37 °C. Blank samples were prepared using buffer only and the rate of cleavage for blank reactions was subtracted from the rates measured in the presence of enzyme. Upon addition of the indicated ADAMTS-7 FRET substrates (40 µM), the fluorescence was measured immediately using a FLUOstar Omega microplate reader (BMG Labtech, Germany) with an excitation filter wavelength of 485 nm and an emission filter wavelength of 520 nm.
Supplementary Figure 6: Cleavage of ATS7FP7 by members of the ADAMTS family. A) ATS7FP7 (40 μM) was incubated either with ADAMTS-1, -4, -5, -7, or -8 (10 nM). Fluorescence was detected (λex = 485 nm, λem = 520 nm) for 8 h at 37°C and reported as relative fluorescence units (RFU). The data are presented as average ± SEM (n=3) and were fitted with a linear regression. […]

Usually Km stands for the substrate concentration at which the rate is half of its maximum. By kcat is commonly meant the maximal rate divided by the concentration of active sites.

For the compound `O=C(NCCC[C@@H](NS(=O)(=O)c1ccc(OCc2ccc(F)cc2Cl)cc1)C(=O)NO)c1ccccc1` [EDV33], the Ki at MMP-2 turned out to be 4 ± 0.3 nM.
For the compound “Glu-Ala-Ala-Ala-Arg↓Ala-Glu↓Ala-Ala-Ala-Lys [ATS7FP7]”, at ADAMTS-4, the Km is 9.5 ± 1.7 µM and the kcat turned out to be 0.116 ± 0.0060 s⁻¹. In addition, the “cleavage by ADAMTS-8” value at ADAMTS-8 is recorded as “neither ADAMTS-1 nor ADAMTS-8 were able to cleave ATS7FP7”.
